Measurements published in patent US9113629B2, “4-amino-6-(4-substituted-phenyl)-picolinates and 6-amino-2-(4-substituted-phenyl)-pyrimidine-4-carboxylates and their use as herbicides” (DOW AGROSCIENCES LLC, priority 2013, dated 2015).
Where two headings read alike, the source gives them in different places.

How the values were obtained:
[1] = tested on: Key Grass and Sedge Weeds as well as Grass Crops; assay: Post-emergent Test II herbicidal activity (Table 6); type: in vivo; conditions: post-emergence, 336 h; for pest or weed control at 70 g/ha: 70 g ai/ha; for pest or weed control at 140 g/ha: 140 g ai/ha
How it was run: (§1)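 Percent injury, 0 (none) to 100 (complete kill), was judged visually 14 d after spraying young plants at the first or second true leaf stage with compound in an acetone/DMSO aqueous carrier at 187 L/ha. Plants were kept in a greenhouse at 23–29 °C by day.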

[2] = tested on: Key Broadleaf Weed and Crop Species; assay: Post-emergent Test II herbicidal activity (Table 5); type: in vivo; conditions: post-emergence, 336 h, 14 days after application; for pest or weed control at 70 g/ha: application rate 70 g ai/ha; for pest or weed control at 140 g/ha: application rate 140 g ai/ha
How it was run: as §1

[3] = CYPES: yellow nutsedge (Cyperus esculentus), read-out: Visual Growth Reduction (%) 14 Days After Application, CYPES
[4] = DIGSA: crabgrass (Digitaria sanguinalis), read-out: Visual Growth Reduction (%) 14 Days After Application, DIGSA
[5] = ECHCG: barnyardgrass (Echinochloa crus-galli), read-out: Visual Growth Reduction (%) 14 Days After Application, ECHCG
[6] = ORYSA: rice (Oryza sativa), crop, read-out: Visual Growth Reduction (%) 14 Days After Application, ORYSA
[7] = SETFA: giant foxtail (Setaria faberi), read-out: Visual Growth Reduction (%) 14 Days After Application, SETFA
[8] = SORVU: grain sorghum (Sorghum vulgare), read-out: Visual Growth Reduction (%) 14 Days After Application, SORVU
[9] = TRZSS (wheat, Triticum aestivum), crop, read-out: Visual Growth Reduction (%) 14 Days After Application, TRZSS
[10] = ZEAMX: maize, corn (Zea mays), crop, read-out: Visual Growth Reduction (%) 14 Days After Application, ZEAMX
[11] = ABUTH: velvetleaf (Abutilon theophrasti), read-out: Visual Growth Reduction (%) 14 Days After Application, ABUTH
[12] = AMARE: redroot pigweed (Amaranthus retroflexus), read-out: Visual Growth Reduction (%) 14 Days After Application, AMARE
[13] = BRSNN: oilseed-rape, canola (Brassica napus), read-out: Visual Growth Reduction (%) 14 Days After Application, BRSNN
[14] = CHEAL: lambsquarters (Chenopodium album), read-out: Visual Growth Reduction (%) 14 Days After Application, CHEAL
[15] = EPHHL: wild poinsettia (Euphorbia heterophylla), read-out: Visual Growth Reduction (%) 14 Days After Application, EPHHL
[16] = HELAN: sunflower (Helianthus annuus), read-out: Visual Growth Reduction (%) 14 Days After Application, HELAN
[17] = VIOTR: wild pansy (Viola tricolor), read-out: Visual Growth Reduction (%) 14 Days After Application, VIOTR

Molecule `COC(=O)c1nc(-c2ccc(C#N)c(F)c2)c(F)c(N)c1Cl` [Compound 135, methyl 4-amino-3-chloro-6-(4-cyano-3-fluorophenyl)-5-fluoropicolinate] has a pest or weed control at 70 g/ha [1, 3] of 85 to 94%, a pest or weed control at 140 g/ha [1, 3] of 95 to 100% and a pest or weed control at 70 g/ha [1, 4] of 60 to 74%. It also gave a pest or weed control at 140 g/ha [1, 4] of 75 to 84%, a pest or weed control at 70 g/ha [1, 5] of 95 to 100% and a pest or weed control at 140 g/ha [1, 5] of 95 to 100%. It also gave a pest or weed control at 70 g/ha [1, 6] of 0 to 29%, a pest or weed control at 140 g/ha [1, 6] of 0 to 29% and a pest or weed control at 70 g/ha [1, 7] of 60 to 74%. The pest or weed control at 140 g/ha [1, 7] was 75 to 84%, the pest or weed control at 70 g/ha [1, 8] was 75 to 84% and the pest or weed control at 140 g/ha [1, 8] was 85 to 94%. For the same molecule, the pest or weed control at 70 g/ha [1, 9] was 30 to 44%, the pest or weed control at 140 g/ha [1, 9] was 30 to 44% and the pest or weed control at 70 g/ha [1, 10] was 75 to 84%. For the same molecule, the pest or weed control at 140 g/ha [1, 10] was 75 to 84%, the pest or weed control at 70 g/ha [2, 11] was 95 to 100% and the pest or weed control at 140 g/ha [2, 11] was 95 to 100%. It also gave a pest or weed control at 70 g/ha [2, 12] of 95 to 100%, a pest or weed control at 140 g/ha [2, 12] of 95 to 100% and a pest or weed control at 70 g/ha [2, 13] of 60 to 74%. It also gave a pest or weed control at 140 g/ha [2, 13] of 60 to 74%, a pest or weed control at 70 g/ha [2, 14] of 95 to 100% and a pest or weed control at 140 g/ha [2, 14] of 95 to 100%. It also gave a pest or weed control at 70 g/ha [2, 15] of 95 to 100%, a pest or weed control at 140 g/ha [2, 15] of 95 to 100% and a pest or weed control at 70 g/ha [2, 16] of 95 to 100%. The pest or weed control at 140 g/ha [2, 16] was 95 to 100%, the pest or weed control at 70 g/ha [2, 17] was 60 to 74% and the pest or weed control at 140 g/ha [2, 17] was 60 to 74%.
